# Assay results from patent US10799456B2, “Multiple drug lipid nanoparticle composition and related methods for extended drug levels in blood and lymph tissue” (priority 2015, dated 2020).
# What was measured:
# [1] = DPH fluorescence anisotropy, lipid phase transition temperature; assay type: physicochemical
# Protocol: To evaluate the change in membrane fluidity due to drug insertion into the lipid membrane, 0.1% 1,6-diphenyl-1,3,5-hexatriene (DPH) was used as an intra-membrane probe.^18,20 Briefly, to incorporate DPH into the lipid membrane, 2 μL of 2 mM DPH in tetrahydrofuran was added to the lipid nanoparticle suspension with or without drug. The final preparation was incubated at 60° C. (above the 55° C. DSPC phase transition temperature) for 30 min, then slowly cooled to room temperature over 15 min. […] A water-jacketed cuvette holder connected to a circulating water bath (PolyScience, model 1162, Niles, Ill.) was used to control the temperature within the cuvette, which was measured by a digital thermometer. The cuvette was allowed to equilibrate for 10 min before taking each temperature reading. The fluorescence intensities, both parallel and perpendicular to the emission light, were measured continuously with a F-4500 fluorescence spectrometer (Hitachi, Minato-ku, Tokyo, Japan) set at kex/em=360/430 nm; both excitation and emission slits were 5 nm. Fluorescence anisotropy response, r, was calculated by the equation: […]
# The fluorescence anisotropy response versus temperature curve was generated by non-linear regression using SigmaPlot software (11.0 version, Systat Software, Inc., San Jose, Calif.). […]
# [2] = Drug incorporation efficiency into lipid-drug nanoparticles (dialysis); assay type: physicochemical; conditions: for Incorporation efficiency (%): DSPC:DSPE-mPEG2000 8:2
# Protocol: J Acquir Immune Defic Syndr. […] Journal of pharmaceutical sciences. […] The AAPS journal. […] Residual solvent was removed overnight by vacuum desiccation. The dried lipid-drug film was then rehydrated with 0.9% NaCl containing 20 mM sodium bicarbonate (pH 7.4). The lipid-drug samples were allowed to hydrate at 60° C. for 2 h. Then samples were sonicated (laboratory scale) or homogenized (preclinical scale) to achieve a homogenous suspension.
# The incorporation efficiency was calculated as the ratio of the amount of incorporated drug over the total amount of drug loaded multiplied by 100%.
# [3] = Tables 20 and 21; cited from earlier work
# [4] = % Drug association to particles by assembly method; assay type: physicochemical
# Source text: Select one or two drugs hydrophilic and water soluble (Class 2) drugs listed in Table 19 (for example, tenofovir and/or emtricitabine and/or lamivudine). • 3. Select the excipient combination (for example, 9 parts DSPC and 1 part PEG-DSPE). • 4. Prepare a single-phase miscible solvent that enables full solubilization of the chosen water-insoluble Class 1 drugs and water soluble Class 2 drugs plus the excipients from step 3. Examples include CHCl3:Methanol:Water (65:35:4); CHCl3:Ethanol:Water (65:35:4); CHCl3:Propanol:Water (65:35:4); and CHCl3:Hexanol:Water (65:35:4). • 5. The components in Steps 1, 2 and 3 are solubilized with the miscible solvent in step 4. • 6. The drugs (steps 1 and 2) as well as excipients (step 3) and the miscible solvent (step 4) are dried under reduced pressure with assistance of a combination of heat, reduced pressure and/or aerosolization to provide for uniformity and efficiency of drying. • 7. The dehydrated composition is heated above gel-to-liquid phase transition temperature of the excipient mixture (e.g., 50° C.). • 8. A buffered saline solution is prepared and the temperature is equilibrated to the same temperature as dehydrated composition. • 9. The buffered saline solution and dehydrated composition are gradually combined and maintained at the defined (e.g., 50° C.) for 3 hr. • 10. The resulting hydrated multi-drug lipid nanoparticles are size-reduced by sheering or forcing through small orifice or pressurized filter apparatus while maintaining at the defined temperature (in liquid phase of lipidic excipients).
# [5] = Particle size by photon correlation spectroscopy; assay type: physicochemical
# Protocol: The mean particle size of lipid-drug nanoparticles and liposome control was determined by photon correlation spectroscopy (PCS) using a NICOMP™ 380ZLS instrument (NICOMP Particle Sizing Systems, Santa Barbara, Calif.). […] Samples were diluted with the same buffer to an identical final volume to analyze concentration effects. The light scattering data were analyzed based on intensity-weight NICOMP size distribution and expressed as a mean±SD.
# Briefly, lipids and protease inhibitors were dissolved in chloroform:ethanol (3:1 v/v) and PMPA was added from a stock solution of 30 mg/ml in aqueous 150 mM NaHCO3. Solvent was removed by rotary evaporation and vacuum desiccation. The dry film was rehydrated to 200 mM lipid in 0.4% NaCl with 20 mM NaHCO3 buffer at 60° C. Particle size was reduced at 60° C. by bath sonication (laboratory scale) or high-pressure homogenization using an Emulsiflex-05 (Avestin, Ottawa, Canada) (clinical scale). LNPs were maintained at 60° C. to anneal for 30 min prior to cooling and stored at 4° C. Particle size was determined by photon correlation spectroscopy using a NICOMP 380 ZLS (Particle Sizing Systems, Santa Barbara, Calif.).
# [6] = Octanol-buffer distribution coefficient (shake-flask); assay type: physicochemical; conditions: room temperature
# Protocol: The octanol-buffer drug distribution coefficient at room temperature was determined by a small-scale, shake-flask method described by Dittert L W, et al. Phase Solubility Technique in Studying the Formation of Complex Salts of Triamterene. Journal of pharmaceutical sciences. […] Briefly, phosphate-buffered saline (PBS) at pH 3, 5, and 7.4 was used as the aqueous phase. […] The mixture was centrifuged at 14,000 rpm (18,078 g) (Beckman Coulter™ Microfuge® 18 centrifuge, Beckman Coulter Inc., Brea, Calif.) to separate octanol and the aqueous phase. The drug concentration in the two phases was determined with high-performance liquid chromatography tandem mass spectrometry (HPLC/MS/MS). The distribution coefficient was calculated as the ratio of the drug concentration in the octanol phase to the drug concentration in the aqueous phase. Triplicate samples were used at each pH.
substance,measurement,setting,value
Darunavir [Darunavir (DRV)],reduction of TC,"[1]; lipid-to-drug 8:1, vs control LNPs",1.6 °C
same,phase transition temperature (TC),[1]; lipid-to-drug molar ratio 8:1,53.3 °C
same,Incorporation efficiency (%),[2]; lipid:drug 5:1 mol/mol,88.1 ± 3.8%
same,Incorporation efficiency (%),"[2]; lipid:drug 5:1 mol/mol, listed as DRV",88.1%
same,Incorporation efficiency (%),[2]; lipid:drug 8:1 mol/mol,94.4 ± 2.8%
same,Incorporation efficiency (%),"[2]; lipid:drug 8:1 mol/mol, listed as DRV",94.4%
same,Incorporation efficiency (%),[2]; lipid:drug 20:1 mol/mol,96.6 ± 4.8%
same,Incorporation efficiency (%),"[2]; lipid:drug 20:1 mol/mol, listed as DRV",96.6%
same,drug incorporation efficiency,[2]; prepared at 0.5 mM lipid,58%
same,drug incorporation efficiency,[2]; prepared at 5 mM lipid,95%
same,Hydrophobicity (Log P),[3],1.8
same,"% Drug Association to Particles, LNPs from mixture of dual solvent method",[4],97%
same,Particle size (nm),[5]; lipid:drug 5:1 mol/mol,33.6 ± 3.1 nm
same,Particle size (nm),[5]; lipid:drug 8:1 mol/mol,35.6 ± 3.9 nm
same,Particle size (nm),[5]; lipid:drug 20:1 mol/mol,35.6 ± 3.7 nm
same,Log D (measured),"[6]; pH 3, octanol/PBS",2.98
same,Log D (measured),"[6]; pH 5, octanol/PBS",2.80
same,Log D (measured),"[6]; pH 7.4, octanol/PBS",2.84
